From patent publication US11738008B2, “N-methyl-D-aspartic acid receptor modulators” (Emory University, priority 2018, dated 2023)
Converted amounts (≈) assume the structure as drawn. Like-named read-outs stand apart in the source and are kept apart here.

How the values were obtained:
rat GluN1/GluN2C [1] = target: rat GluN1/GluN2C (Rattus norvegicus, UniProt Q00961); assay: Two-electrode voltage clamp recordings in Xenopus laevis oocytes, potentiation of GluN1/GluN2C; format: cell-based; settings: for GluN2C potentiation (NE class): 30 μM; for GluN2C Max %: maximal response, current without potentiator = 100%
rat GluN1/GluN2C (Rattus norvegicus, UniProt Q00961), sequence (Q00961 20-1237, other chains not shown): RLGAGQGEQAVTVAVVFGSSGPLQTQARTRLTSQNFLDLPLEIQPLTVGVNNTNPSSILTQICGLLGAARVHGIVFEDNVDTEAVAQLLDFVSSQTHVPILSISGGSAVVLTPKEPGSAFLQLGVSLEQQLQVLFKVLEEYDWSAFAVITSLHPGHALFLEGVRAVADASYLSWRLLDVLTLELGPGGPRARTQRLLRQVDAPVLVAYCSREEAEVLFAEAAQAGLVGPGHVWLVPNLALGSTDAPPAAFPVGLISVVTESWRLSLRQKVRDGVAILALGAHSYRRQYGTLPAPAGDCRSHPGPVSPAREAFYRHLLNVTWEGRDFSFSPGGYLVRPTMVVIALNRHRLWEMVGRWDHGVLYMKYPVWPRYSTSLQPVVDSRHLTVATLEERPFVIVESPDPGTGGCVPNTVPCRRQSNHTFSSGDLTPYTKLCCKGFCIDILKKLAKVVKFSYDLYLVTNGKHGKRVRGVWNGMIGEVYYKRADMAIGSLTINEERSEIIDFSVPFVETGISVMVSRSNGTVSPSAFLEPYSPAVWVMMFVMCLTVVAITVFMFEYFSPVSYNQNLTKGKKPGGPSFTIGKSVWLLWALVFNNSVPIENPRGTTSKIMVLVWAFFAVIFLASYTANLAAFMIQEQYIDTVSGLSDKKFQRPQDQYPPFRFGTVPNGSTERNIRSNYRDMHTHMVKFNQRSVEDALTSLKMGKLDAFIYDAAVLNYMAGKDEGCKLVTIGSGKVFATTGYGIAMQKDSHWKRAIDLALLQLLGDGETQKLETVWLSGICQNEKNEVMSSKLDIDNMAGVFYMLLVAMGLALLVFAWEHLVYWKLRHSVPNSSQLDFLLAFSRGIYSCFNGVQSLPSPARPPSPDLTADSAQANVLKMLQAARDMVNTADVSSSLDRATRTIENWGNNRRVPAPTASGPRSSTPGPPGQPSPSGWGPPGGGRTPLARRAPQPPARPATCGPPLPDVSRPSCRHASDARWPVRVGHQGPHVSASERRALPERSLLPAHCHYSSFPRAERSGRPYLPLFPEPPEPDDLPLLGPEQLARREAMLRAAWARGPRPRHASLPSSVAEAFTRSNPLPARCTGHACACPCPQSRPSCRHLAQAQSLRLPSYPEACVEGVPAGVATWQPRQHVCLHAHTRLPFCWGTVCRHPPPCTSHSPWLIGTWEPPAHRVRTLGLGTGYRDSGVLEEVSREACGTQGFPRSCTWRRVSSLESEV
Experimental: (§1) Xenopus laevis oocytes were purchased unfertilized from Ecocyte (Austin, Tex.). The oocytes were injected with mRNA to express recombinant rat GluN1/GluN2A, GluN1/GluN2B, GluN1/GluN2C, and GluN1/GluN2D and two-electrode voltage clamp (TEVC) recordings were performed. Drs. S. Heinemann (Salk Institute), S. Nakanishi (Kyoto University), and P. Seeburg (University of Heidelberg) provided the cDNAs for rat GluN1-1a (GenBank accession numbers U11418 and U08261, referred to as GluN1 henceforth), GluN2A (D13211), GluN2B (U11419), GluN2C (M91563), and GluN2D (D13213). GluN2C and GluN2D were altered according to literature precedent. […] To prevent the current increase typically seen during experiments with oocytes expressing GluN1/GluN2A receptors, the oocytes were either injected with 20 nL of 100 mM K-BAPTA (potassium 1,2-bis(o-aminophenoxy)ethane-N,N,N,N-tetraacetic acid) or pretreated with 50 μM BAPTA-AM (1,2-bis(o-aminophenoxy)ethane-N,N,N,N-tetraacetic acid tetraacetoxymethyl ester) for 10 minutes.

rat GluN1/GluN2D [2] = target: rat GluN1/GluN2D (Rattus norvegicus, UniProt Q62645); assay: Two-electrode voltage clamp recordings in Xenopus laevis oocytes, potentiation of GluN1/GluN2D; format: cell-based; settings: for GluN2D potentiation (NE class): 30 μM; for GluN2D Max %: maximal response, current without potentiator = 100%
rat GluN1/GluN2D (Rattus norvegicus, UniProt Q62645), sequence (Q62645 28-1323, other chains not shown): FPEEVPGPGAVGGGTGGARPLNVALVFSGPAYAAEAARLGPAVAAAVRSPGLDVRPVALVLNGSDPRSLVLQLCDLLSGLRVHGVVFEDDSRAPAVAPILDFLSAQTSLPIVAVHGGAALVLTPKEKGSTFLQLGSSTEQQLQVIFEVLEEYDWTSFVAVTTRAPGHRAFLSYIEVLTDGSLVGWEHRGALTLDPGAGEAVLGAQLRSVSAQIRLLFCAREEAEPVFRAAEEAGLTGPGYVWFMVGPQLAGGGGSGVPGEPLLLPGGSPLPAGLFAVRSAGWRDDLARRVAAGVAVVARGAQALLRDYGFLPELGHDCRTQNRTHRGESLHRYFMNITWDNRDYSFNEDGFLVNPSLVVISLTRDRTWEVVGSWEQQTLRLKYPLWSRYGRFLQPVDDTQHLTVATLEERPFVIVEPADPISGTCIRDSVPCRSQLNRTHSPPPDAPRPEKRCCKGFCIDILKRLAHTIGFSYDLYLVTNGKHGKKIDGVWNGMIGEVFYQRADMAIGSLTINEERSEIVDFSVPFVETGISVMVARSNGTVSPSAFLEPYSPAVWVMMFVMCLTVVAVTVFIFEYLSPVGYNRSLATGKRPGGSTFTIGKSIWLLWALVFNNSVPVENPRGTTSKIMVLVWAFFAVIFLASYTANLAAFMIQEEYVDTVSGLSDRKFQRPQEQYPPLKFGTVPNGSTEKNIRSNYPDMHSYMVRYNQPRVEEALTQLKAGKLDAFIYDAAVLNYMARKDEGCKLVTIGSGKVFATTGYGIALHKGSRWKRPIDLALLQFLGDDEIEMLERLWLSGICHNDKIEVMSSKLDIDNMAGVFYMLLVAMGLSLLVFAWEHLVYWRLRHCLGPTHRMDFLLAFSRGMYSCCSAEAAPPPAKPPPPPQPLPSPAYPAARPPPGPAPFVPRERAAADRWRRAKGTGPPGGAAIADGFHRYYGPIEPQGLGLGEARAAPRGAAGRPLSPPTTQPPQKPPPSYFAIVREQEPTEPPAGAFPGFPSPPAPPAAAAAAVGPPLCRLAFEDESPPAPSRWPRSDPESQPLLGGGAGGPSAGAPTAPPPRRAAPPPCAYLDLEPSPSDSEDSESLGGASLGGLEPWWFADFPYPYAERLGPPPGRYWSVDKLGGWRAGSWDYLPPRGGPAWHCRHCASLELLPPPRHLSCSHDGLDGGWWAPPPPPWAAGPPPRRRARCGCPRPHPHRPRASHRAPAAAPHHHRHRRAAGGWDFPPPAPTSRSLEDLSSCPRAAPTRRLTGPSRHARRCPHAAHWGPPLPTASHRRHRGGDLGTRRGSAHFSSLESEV
Experimental: as §1

rat GluN1/GluN2C [3] = target: rat GluN1/GluN2C (Rattus norvegicus, UniProt P35439+Q00961); assay: Two-electrode voltage clamp recordings in Xenopus laevis oocytes, potentiation of GluN1/GluN2C; format: cell-based
rat GluN1/GluN2C (Rattus norvegicus, UniProt P35439+Q00961), sequence (Q00961 20-1237, other chains not shown): as the sequence (Q00961 20-1237, other chains not shown) above
Experimental: as §1

rat GluN1/GluN2D [4] = target: rat GluN1/GluN2D (Rattus norvegicus, UniProt P35439+Q62645); assay: Two-electrode voltage clamp recordings in Xenopus laevis oocytes, potentiation of GluN1/GluN2D; format: cell-based
rat GluN1/GluN2D (Rattus norvegicus, UniProt P35439+Q62645), sequence (Q62645 28-1323, other chains not shown): as the sequence (Q62645 28-1323, other chains not shown) above
Experimental: as §1

[5] = nephelometer, oocyte recording solution
GluN2C/D = settings: Mullasseril et al. 2010; read-out: potency at GluN2C/D; cited from earlier work
[6] = system: GluN2A/B, AMPAR, or kainate receptors; settings: previously described; cited from earlier work
[7] = system: fear and extinction learning; settings: mice; Ogden et al. 2014; cited from earlier work
[8] = system: schizophrenia-like symptoms; settings: mice; Suryavanshi et al. 2014; cited from earlier work

SMILES | GluN2C Max % (rat GluN1/GluN2C [1]) [%] | EC50 (rat GluN1/GluN2C [3]; read-out: GluN2C EC50) [µM] | EC50 (rat GluN1/GluN2D [4]; read-out: GluN2D EC50) [µM] | GluN2D Max % (rat GluN1/GluN2D [2]) [%] | GluN2C (max) (%) (rat GluN1/GluN2C [1]) | GluN2D (max) (%) (rat GluN1/GluN2D [2]) | other results
COc1ccc(OCC2c3ccsc3CCN2C(=S)c2cccc(Cl)c2)cc1 (centres unmarked) [1180-414, (3-Chlorophenyl)(4-((4-methoxyphenoxy)methyl)-6,7-dihydrothieno[3,2-c]pyridin-5(4H)-yl)methanethione] | – | – | – | – | – | – | GluN2C potentiation (NE class) (rat GluN1/GluN2C [1]): NE (NE indicates less than 20% potentiation at 30 μM); GluN2D potentiation (NE class) (rat GluN1/GluN2D [2]): NE (NE indicates less than 20% potentiation at 30 μM)
COc1ccc(OCC2c3sccc3CCN2C(=O)c2ccc(Cl)s2)cc1 (centres unmarked) [1180-404, (5-Chlorothiophen-2-yl)(7-((4-methoxyphenoxy)methyl)-4,7-dihydrothieno[2,3-c]pyridin-6(5H)-yl)methanone] | 269 | 5.1 | 7.4 | 352 | – | – | –
COc1ccc(OCC2c3cnn(C)c3CCN2C(=S)c2cccc(Cl)c2)cc1 (centres unmarked) [1180-413, (3-Chlorophenyl)(4-((4-methoxyphenoxy)methyl)-1-methyl-1,4,6,7-tetrahydro-5H-pyrazolo[4,3-c]pyridin-5-yl)methanethione] | – | – | – | – | – | – | GluN2C potentiation (NE class) (rat GluN1/GluN2C [1]): NE (NE indicates less than 20% potentiation at 30 μM); GluN2D potentiation (NE class) (rat GluN1/GluN2D [2]): NE (NE indicates less than 20% potentiation at 30 μM)
COc1ccc(OCC2c3cccn3CCN2C(=O)c2cccc(C(F)(F)F)c2)cc1 (racemic) [1180-450, (1-((4-methoxyphenoxy)methyl)-3,4-dihydropyrrolo[1,2-a]pyrazin-2(1H)-yl)(3-(trifluoromethyl)phenyl)methanone] | – | – | – | – | (381) % | (288) % | EC50 (rat GluN1/GluN2C [3]; read-out: GluN2C pEC50 [95% CI] (converted)): 1.58 µM; Solubility [5]: 58 µM (≈ 25 µg/mL); EC50 (rat GluN1/GluN2D [4]; read-out: GluN2D pEC50 [95% CI] (converted)): 2 µM
COc1ccc(OCC2c3sc(C)nc3CCN2C(=O)c2cccc(Cl)c2)cc1 (centres unmarked) [1180-402, (3-Chlorophenyl)(4-((4-methoxyphenoxy)methyl)-2-methyl-6,7-dihydrothiazolo[5,4-c]pyridin-5(4H)-yl)methanone] | – | – | – | – | – | – | GluN2C potentiation (NE class) (rat GluN1/GluN2C [1]): NE (NE indicates less than 20% potentiation at 30 μM); GluN2D potentiation (NE class) (rat GluN1/GluN2D [2]): NE (NE indicates less than 20% potentiation at 30 μM)
COc1ccc(OCC2c3cnn(C)c3CCN2C(=O)c2cccc(Cl)c2)cc1 (centres unmarked) [1180-407, (3-Chlorophenyl)(4-((4-methoxyphenoxy)methyl)-1-methyl-1,4,6,7-tetrahydro-5H-pyrazolo[4,3-c]pyridin-5-yl)methanone] | – | – | – | – | – | – | GluN2C response at 100 μM (rat GluN1/GluN2C [1]; @ 100 μM): 207% @ 100 μM; GluN2D response at 100 μM (rat GluN1/GluN2D [2]; @ 100 μM): 216% @ 100 μM
COc1ccc(OCC2c3cccn3CC(=O)N2Cc2cccc(F)c2)cc1 (centres unmarked) [1180-453, 2-(3-fluorobenzyl)-1-((4-methoxyphenoxy)methyl)-1,2-dihydropyrrolo[1,2-a]pyrazin-3(4H)-one] | – | – | – | – | (348) % | (334) % | Solubility [5]: 74 µM (≈ 28.2 µg/mL)
COc1ccc(OCC2c3sccc3CCN2C(=O)/C=C/C(F)(F)F)cc1 (centres unmarked) [1180-405, (E)-4,4,4-trifluoro-1-(7-((4-methoxyphenoxy)methyl)-4,7-dihydrothieno[2,3-c]pyridin-6(5H)-yl)but-2-en-1-one] | 282 | 13 | 13 | 317 | – | – | –

More lines, main results first:

GluN2C Max % (rat GluN1/GluN2C [1]) [%] | EC50 (rat GluN1/GluN2C [3]; read-out: GluN2C EC50) [µM] | EC50 (rat GluN1/GluN2D [4]; read-out: GluN2D EC50) [µM] | GluN2D Max % (rat GluN1/GluN2D [2]) [%] | GluN2C (max) (%) (rat GluN1/GluN2C [1]) | GluN2D (max) (%) (rat GluN1/GluN2D [2]) | SMILES | other results
353 | 7.4 | 9.6 | 527 | – | – | COc1ccc(OCC2c3occc3CCN2C(=O)c2cccc(Cl)c2)cc1 (centres unmarked) [1180-403, (3-Chlorophenyl)(7-((4-methoxyphenoxy)methyl)-4,7-dihydrofuro[2,3-c]pyridin-6(5H)-yl)methanone] | –
320 | 3.6 | 4.7 | 369 | – | – | COc1ccc(OCC2c3ccsc3CCN2C(=O)c2cccc(Cl)c2)cc1 (centres unmarked) [1180-401, (3-Chlorophenyl)(4-((4-methoxyphenoxy)methyl)-6,7-dihydrothieno[3,2-c]pyridin-5(4H)-yl)methanone] | –
– | – | – | – | 464% | 542% | COc1ccc(OC[C@H]2c3cccn3CCN2C(=O)c2cccc(C(F)(F)F)c2)cc1 [R-(+)-1180-450] | –
– | – | – | – | 276% | 332% | COc1ccc(OC[C@H]2c3cccn3CC(=O)N2Cc2cccc(C(F)(F)F)c2)cc1 [R-(+)-1180-447] | –
194 | 11 | 15 | 238 | – | – | COc1ccc(OCC2c3cnsc3CCN2C(=O)c2cccc(Cl)c2)cc1 (centres unmarked) [1180-411, (3-Chlorophenyl)(4-((4-methoxyphenoxy)methyl)-6,7-dihydroisothiazolo[4,5-c]pyridin-5(4H)-yl)methanone] | –
288 | 3.8 | 3.5 | 391 | – | – | COc1ccc(OCC2c3sccc3CCN2C(=O)c2cccc(Cl)c2)cc1 (centres unmarked) [1180-400, (3-Chlorophenyl)(7-((4-methoxyphenoxy)methyl)-4,7-dihydrothieno[2,3-c]pyridin-6(5H)-yl)methanone] | –
– | – | – | – | 233% | 215% | COc1ccc(OCC2c3cc(OC)c(OC)cc3CCN2C(=O)c2cccc(Cl)c2)cc1 (centres unmarked) [CIQ] | EC50 (GluN2C/D): 5 to 10 µM; activity at GluN2A/B, AMPAR, or kainate receptors [6]: no activity; effect on fear and extinction learning in animal models [7]: facilitate the retention of fear and extinction learning; effect on schizophrenia-like symptoms in animal models [8]: attenuate schizophrenia-like symptoms
